Columns and labels:
[1] = molecular target: T1, hA2AAR (Homo sapiens, UniProt P29274); assay: Radioligand binding at human A2A AR ([3H]CGS21680, membranes of HEK-293 cells)
T1 construct: expressed in transfected cells
Method in brief: (§1)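 Membranes from CHO (hA1, hA3) or HEK-293 (hA2A) cells were pretreated with adenosine deaminase and incubated 60 min at 25° C in pH 7.5 Tris/10 mM MgCl2. Radioligands were A1 [3H]NECA 3.5 nM, A2A [3H]CGS21680 10 nM and A3 [125I]I-AB-MECA 0.34 nM. Bound ligand was filtered and Ki derived.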

[2] = molecular target: T2, human A3AR (Homo sapiens, UniProt P0DMS8); assay: Cyclic AMP accumulation assay: inhibition of forskolin-stimulated cyclic AMP production in AR-transfected CHO cells; format: cell-based; conditions: at 10 μM, in comparison to the maximal effect of full agonist NECA at 10 μM
T2 construct: expressed in transfected cells
T2 sequence (P0DMS8 1-318): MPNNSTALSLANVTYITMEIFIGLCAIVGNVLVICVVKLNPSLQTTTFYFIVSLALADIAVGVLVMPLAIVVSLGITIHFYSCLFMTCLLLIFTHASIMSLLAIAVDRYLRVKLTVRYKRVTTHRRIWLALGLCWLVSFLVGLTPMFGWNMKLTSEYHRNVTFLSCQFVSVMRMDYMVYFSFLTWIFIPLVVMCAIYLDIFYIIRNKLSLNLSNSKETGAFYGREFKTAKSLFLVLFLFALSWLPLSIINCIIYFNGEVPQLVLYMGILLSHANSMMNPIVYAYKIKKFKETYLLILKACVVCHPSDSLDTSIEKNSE
Description: Intracellular cyclic AMP levels were measured with a competitive protein binding method. […] CHO cells that expressed the recombinant human A3AR were harvested by trypsinization. After centrifugation and resuspended in medium, cells were planted in 24-well plates in 1.0 mL medium. After 24 h, the medium was removed and cells were washed three times with 1 mL DMEM, containing 50 mM HEPES, pH 7.4. […] After 45 min forskolin (10 μM) was added to the medium, and incubation was continued for an additional 15 min. […] The cell lysate was resuspended and stored at −20° C. For determination of cyclic AMP production, protein kinase A (PKA) was incubated with [^3H]cyclic AMP (2 nM) in K2HPO4/EDTA buffer (K2HPO4, 150 mM; EDTA, 10 mM), 20 μL of the cell lysate, and 30 μL 0.1 M HCl or 50 μL of cyclic AMP solution (0-16 pmol/200 μL for standard curve). Bound radioactivity was separated by rapid filtration through Whatman GF/C filters and washed once with cold buffer. Bound radioactivity was measured by liquid scintillation spectrometry.
Bound radioactivity was separated by rapid filtration through Whatman GF/C filters and washed the filters once with cold buffer. Bound radioactivity was measured with liquid scintillation spectrometry.

[3] = molecular target: T3, human A1 AR (Homo sapiens, UniProt P30542); assay: Radioligand binding at human A1 AR ([3H]NECA, membranes of CHO cells)
T3 construct: expressed in transfected cells
T3 sequence (P30542 1-326): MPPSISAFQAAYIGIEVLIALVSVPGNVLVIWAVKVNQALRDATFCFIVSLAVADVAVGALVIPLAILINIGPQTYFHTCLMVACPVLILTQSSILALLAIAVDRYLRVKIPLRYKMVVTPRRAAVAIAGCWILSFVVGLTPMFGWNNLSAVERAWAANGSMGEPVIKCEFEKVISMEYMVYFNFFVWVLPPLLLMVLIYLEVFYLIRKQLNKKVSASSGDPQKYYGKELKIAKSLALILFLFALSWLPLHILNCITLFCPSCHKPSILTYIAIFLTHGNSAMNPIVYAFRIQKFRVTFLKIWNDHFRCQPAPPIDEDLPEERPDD
Method in brief: as §1

T1 sequence (P29274 whole entry): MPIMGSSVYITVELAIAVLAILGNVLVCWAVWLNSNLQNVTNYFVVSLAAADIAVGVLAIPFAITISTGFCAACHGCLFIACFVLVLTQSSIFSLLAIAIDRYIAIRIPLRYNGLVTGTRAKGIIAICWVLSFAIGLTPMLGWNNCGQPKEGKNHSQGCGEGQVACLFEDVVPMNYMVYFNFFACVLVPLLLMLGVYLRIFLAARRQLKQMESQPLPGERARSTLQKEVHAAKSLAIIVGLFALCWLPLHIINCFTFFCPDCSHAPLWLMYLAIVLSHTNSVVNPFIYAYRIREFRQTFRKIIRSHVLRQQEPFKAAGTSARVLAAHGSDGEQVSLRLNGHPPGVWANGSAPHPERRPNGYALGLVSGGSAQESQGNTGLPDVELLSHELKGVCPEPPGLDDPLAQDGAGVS

## CNC(=O)[C@@]12C[C@@H]1[C@@H](n1cnc3c(NCc4cccc(Cl)c4)nc(C#CCCCCc4cn(-c5ccc(N=C=S)cc5)nn4)nc31)[C@H](O)[C@@H]2O [Compound 26, (1S,2R,3S,4R,5S)-6-(3-Chlorobenzylamino)-(2-(6-(1-(4-isothiocyante-phenyl)-1H-1,2,3-triazol-4-yl)hex-1-ynyl)-9H-purin-9-yl)-2′,3′-dihydroxybicyclo[3.1.0]hexane-1′-carboxylic acid N-methylamide]
[1]
  inhibition at 10 µM: 28%
[2]
  % Inhibition of cAMP formation at hA3 AR: 19.5 ± 14.5%
[3]
  inhibition at 10 µM: 2%
